We go through 30 compounds from patent US6551998B1, “Antimicrobial agents” (University of Louisville Research Foundation, Inc., priority 1999, dated 2003).

Assay [1] has as its system Methicillin resistant Staphylococcus aureus (ATCC 33591). The assay is classed as cell-based. The note with it: for MRSA IC50: Table 4; for selectivity between MRSA and P. aeruginosa (in words): comparison of the MRSA and Ps A. IC50 of Table 4; for IC50 / MIC: ATCC 33591; for activity against MRSA (in words): gram-positive organism. The protocol: (§1) The antimicrobial compounds of the present invention were assayed using a standard microdilution assay against gram-positive bacteria Staphylococcus aureus (strain used: ATTC 29213) and methicillin-resistant strain used ATCC 33591) and the gram-negative bacteria Pseudomonas aeruginosa (strain used ATCC27853). The samples were assayed against 1-5×10^5 colony forming units, in Mueller-Hinton broth, at 37° C. The activity was determined following a 21 hour incubation. The IC50 values were calculated using sigmoidal curve fitting software. (Graphpad™, ISI Software, San Diego, Calif.) and correspond to the sample concentration which inhibits 50 percent of bacterial growth. The minimum inhibitory concenttration (MIC) is defined as the lowest concentration of sample at which no growth is detected by optical density between

Assay [2] deals with Pseudomonas aeruginosa (ATCC27853). Format: cell-based. The note with it: for Ps A. IC50: Table 4; for activity against Pseudomonas aeruginosa (in words): gram negative organism. The protocol:
as §1

The mark [3] stands for this setting: Table 2, Mueller-Hinton broth, 37° C., 21 hour incubation, 50 percent inhibition of bacterial growth.
Where [4] appears, read: Table 2, lowest concentration at which no growth is detected, 21 hour incubation.

Converted amounts (≈) assume the structure as drawn. Like-named read-outs stand apart in the source and are kept apart here. Square brackets hold non-standard residues; d marks the D form. 2Nal = N[C@@H](Cc1ccc2ccccc2c1)C(=O)O

“H-2-Nalψ[CH2NH]Lys(Ac)-Ser-Pheψ[CH2NH]Leu-OH [Compound 28]” yielded an MRSA IC50 in assay [1] of 25.8 µg/mL. The Ps A. IC50 in assay [2] turned out to be 190 µg/mL.
As for “H-2-Nalψ[CH2NH]Met-4-AMB-Pheψ[CH2NH]Leu-OH [Compound 33]”, in assay [1], the MRSA IC50 worked out at 17.6 µg/mL; the “selectivity between MRSA and P. aeruginosa (in words)” value was “quite selective toward MRSA”. In addition, the Ps A. IC50 in assay [2] was found to be 163 µg/mL.
In assay [1], `CCC(CC)(NC[C@@H](N)Cc1ccc2ccccc2c1)C(=O)N[C@@H](Cc1ccccc1)C(=O)N[C@H](CN[C@@H](CC(C)C)C(=O)O)Cc1ccccc1` [Compound 18, H-2-Nalψ[CH2NH]Deg-Phe-Pheψ[CH2NH]Leu-OH] registered an IC50 of 6 µg/mL (≈ 8.48 µM) and an MIC of 16 to 32 µg/mL.
Regarding `CCC(CC)(NC[C@@H](N)Cc1ccc2ccccc2c1)C(=O)N[C@@H](CO)C(=O)N[C@H](CN[C@@H](CC(C)C)C(=O)O)Cc1ccccc1` [Compound 16, H-2-Nalψ[CH2NH]Deg-Ser-Pheψ[CH2NH]Leu-OH], the IC50 in assay [1] was determined as 17 µg/mL (≈ 26.2 µM); in assay [2] (setting [3]) it was 170 µg/mL (≈ 262 µM). Also, the minimal inhibitory concentration (MIC) in assay [1] is 62 to 125 µg/mL; in assay [2] (setting [4]) it was more than 250 µg/mL.
With `CSCC[C@H](NC[C@@H](N)Cc1ccc2ccccc2c1)C(=O)N[C@@H](Cc1ccccc1)C(=O)N[C@H](CN[C@@H](CC(C)C)C(=O)O)Cc1ccccc1` [Compound 6, H-2-Nalψ[CH2NH]Met-Phe-Pheψ[CH2NH]Leu-OH], in assay [1], the IC50 came out at 44 µg/mL (≈ 60.6 µM) and the MIC is 125 to 250 µg/mL.
As to “H-D-2-Nalψ[CH2NH]D-Met-Aib-D-Pheψ[CH2NH]D-Leu-OH [Compound 35]”, the MRSA IC50 in assay [1] turned out to be 42.1 µg/mL. In addition, the Ps A. IC50 in assay [2] came to 463 µg/mL.
As to “H-2-Nalψ[CH2NH]Lys-Ser-Pheψ[CH2NAc]Leu-OH [Compound 30]”, in assay [1], the MRSA IC50 is 26 µg/mL. This compound had a Ps A. IC50 in assay [2] of 50 µg/mL.
For “4-AMBψ[CH2NH]Lys-Ser-Pheψ[CH2NH]Leu-OH [Compound 37]” the same measures were more than 500 µg/mL and 415 µg/mL.
For “Ac-2-Nalψ[CH2NH]Lys-Ser-Pheψ[CH2NH]Leu-OH [Compound 24]” the same measures were 60 µg/mL and 180 µg/mL.
As to `CC[C@H](C)[C@H](NC[C@@H](N)Cc1ccc2ccccc2c1)C(=O)NC(C)(C)C(=O)N[C@H](CN[C@@H](CC(C)C)C(=O)O)Cc1ccccc1` [Compound 15, H-2-Nalψ[CH2NH]Ile-Aib-Pheψ[CH2NH]Leu-OH], in assay [1], the concentration for half-maximal inhibition (IC50) was 39 µg/mL (≈ 60.4 µM) and the MIC was 80 to 125 µg/mL.
For “H-D-2-Nalψ[CH2NH]D-Lys-D-Ser-D-Pheψ[CH2NH]D-Leu-OH [Compound 29]”, in assay [1], the MRSA IC50 is 18.8 µg/mL; the “selectivity between MRSA and P. aeruginosa (in words)” value was “slight selectivity for the gram-negative organisms”. In assay [2], the Ps A. IC50 worked out at 13.9 µg/mL.
For the compound `CC[C@H](C)[C@H](NC[C@@H](N)Cc1ccc2ccccc2c1)C(=O)N[C@@H](Cc1ccccc1)C(=O)N[C@H](CN[C@@H](CC(C)C)C(=O)O)Cc1ccccc1` [Compound 9, H-Nalψ[CH2NH]Ile-Phe-Pheψ[CH2NH]Leu-OH], in assay [1], the IC50 came out at 9 µg/mL (≈ 12.7 µM) and the MIC lay within 16 to 32 µg/mL.
Turning to `CC(C)C[C@H](NC[C@H](Cc1ccccc1)NC(=O)[C@H](Cc1ccccc1)NC(=O)[C@H](CCCCN)NC[C@@H](N)Cc1ccc2ccccc2c1)C(=O)O` [Compound 3, H-2-Nalψ[CH2NH]Lys-Phe-Pheψ[CH2NH]Leu-OH], the IC50 in assay [1] is 19 µg/mL (≈ 26.3 µM); in assay [2] (ATCC27853, 21 h) it was 31 µg/mL (≈ 42.9 µM). The MIC was in the range of 125 to 150 µg/mL in assay [1] and 40 to 62 µg/mL in assay [2] (ATCC27853, 21 h).
In assay [1], “H-2-Nalψ[CH2NH]Lys-Ser-Phe-Leu-OH (H-[2Nal]KSFL-OH; also: ψ[CH2NH] reduced bond between 2-Nal1 and Lys2) [Compound 27]” returned an MRSA IC50 of 37.8 µg/mL. Besides, the Ps A. IC50 in assay [2] is 65.4 µg/mL.
Consider “H-2-Nalψ[CH2NH]Met-3-AMB-Pheψ[CH2NH]Leu-OH [Compound 34]”, for which the MRSA IC50 in assay [1] amounted to 47 µg/mL. The Ps A. IC50 in assay [2] came out at 230 µg/mL.
With `CCC(CC)(NC(=O)[C@H](CCSC)NC[C@@H](N)Cc1ccc2ccccc2c1)C(=O)N[C@H](CN[C@@H](CC(C)C)C(=O)O)Cc1ccccc1` [Compound 20, H-Nalψ[CH2NH]Met-Deg-Pheψ[CH2NH]Leu-OH], in assay [1], the IC50 was determined as 5 µg/mL (≈ 7.23 µM) and the MIC lay within 16 to 32 µg/mL. Moreover, in assay [2] (ATCC27853, 21 h), the IC50 was determined as 64 µg/mL (≈ 92.5 µM) and the MIC is 80 to 125 µg/mL. Also, in assay [2], the “activity against Pseudomonas aeruginosa (in words)” value was “good potency”.
For the compound “H-2-Nal-Lys-Ser-Phe-Leu-OH (H-[2Nal]KSFL-OH; SMILES CC(C)C[C@H](NC(=O)[C@H](Cc1ccccc1)NC(=O)[C@H](CO)NC(=O)[C@H](CCCCN)NC(=O)[C@@H](N)Cc1ccc2ccccc2c1)C(=O)O) [Compound 26]”, in assay [1], the MRSA IC50 was found to be 184 µg/mL and the “activity against MRSA (in words)” value is reported as “modest activity in both assays”. For the same compound, in assay [2], the Ps A. IC50 was determined as 388 µg/mL and the “activity against Pseudomonas aeruginosa (in words)” value is reported as “modest activity in both assays”.
With `CC[C@H](C)[C@H](NC[C@@H](N)Cc1ccc2ccccc2c1)C(=O)N[C@@H](CO)C(=O)N[C@H](CN[C@@H](CC(C)C)C(=O)O)Cc1ccccc1` [Compound 7, H-2-Nalψ[CH2NH]Ile-Ser-Pheψ[CH2NH]Leu-OH], in assay [1], the IC50 was 69 µg/mL (≈ 107 µM) and the MIC lay in the range of 125 to 250 µg/mL.
Regarding `CSCCC(NCC(N)Cc1ccc2ccccc2c1)C(=O)NC(C)(C)C(=O)NC(CNC(CC(C)C)C(=O)O)Cc1ccccc1` (stereo not drawn) [Compound 14, H-2-Nalψ[CH2NH]Met-Aib-Pheψ[CH2NH]Leu-OH], in assay [1], the IC50 came to 3 µg/mL (≈ 4.52 µM), the MIC was 8 to 16 µg/mL and the “activity against MRSA (in words)” value is recorded as “also active”. Besides, in assay [2] (ATCC27853, 21 h), the 50% inhibitory concentration (IC50) was 20 µg/mL (≈ 30.1 µM) and the MIC lay within 31 to 62 µg/mL. Also, the “activity against Pseudomonas aeruginosa (in words)” value in assay [2] was “good potency”.
For `CC[C@H](C)[C@H](NC[C@@H](N)Cc1ccc2ccccc2c1)C(=O)NC(CC)(CC)C(=O)N[C@H](CN[C@@H](CC(C)C)C(=O)O)Cc1ccccc1` [Compound 21, H-2-Nalψ[CH2NH]Ile-Deg-Pheψ[CH2NH]Leu-OH], in assay [1], the IC50 came to 34 µg/mL (≈ 50.4 µM) and the MIC is 40 to 162 µg/mL.
In assay [1], `CCC(CC)(NC(=O)[C@H](CCCCN)NC[C@@H](N)Cc1ccc2ccccc2c1)C(=O)N[C@H](CN[C@@H](CC(C)C)C(=O)O)Cc1ccccc1` [Compound 19, H-2-Nalψ[CH2NH]Lys-Deg-Pheψ[CH2NH]Leu-OH] came in with an IC50 of 67 µg/mL (≈ 97.2 µM) and an MIC of 125 to 250 µg/mL. In assay [2] (ATCC27853, 21 h), the IC50 worked out at 143 µg/mL (≈ 208 µM) and the MIC was 250 to 500 µg/mL.
As for “H-2-Nalψ[CH2NH]Lys-Ser-4-AMBψ[CH2NH]Leu-OH [Compound 36]”, in assay [1], the MRSA IC50 is 37.5 µg/mL. In assay [2], this compound registered a Ps A. IC50 of 32.2 µg/mL.
`CC(C)C[C@H](NC[C@H](Cc1ccccc1)NC(=O)[C@H](CO)NC(=O)[C@H](CCCCN)NC[C@@H](N)Cc1ccc2ccccc2c1)C(=O)O` [Compound 1, H-2-Nal ψ[CH2NH]Lys-Ser-Pheψ[CH2NH]Leu-OH]: in assay [1], the 50% inhibitory concentration (IC50) is 3 µg/mL (≈ 4.53 µM), the MIC was 8 to 16 µg/mL and the “activity against MRSA (in words)” value was “most active”. In addition, the IC50 in assay [2] (setting [3]) is 10 µg/mL (≈ 15.1 µM). The compound further yielded an MIC in assay [2] (setting [4]) of 16 to 32 µg/mL.
Turning to `CC[C@H](C)[C@H](NC[C@@H](N)Cc1ccc2ccccc2c1)C(=O)N[C@H](C(=O)N[C@H](CN[C@@H](CC(C)C)C(=O)O)Cc1ccccc1)C(C)C` [Compound 8, H-2-Nalψ[CH2NH]Ile-Val-Pheψ[CH2NH]Leu-OH], in assay [1], the IC50 was found to be 5 µg/mL (≈ 7.58 µM) and the MIC was 8 to 16 µg/mL.
Turning to “H-2-Nalψ[CH2NAc]Met-Aib-Pheψ[CH2NH]Leu-OH [Compound 25]”, in assay [1], the MRSA IC50 stood at 28.7 µg/mL; the “selectivity between MRSA and P. aeruginosa (in words)” value is “very selective”; the “activity against MRSA (in words)” value is “quite active”. Also, the Ps A. IC50 in assay [2] was more than 500 µg/mL.
Regarding “H-D-2-Nalψ[CH2NH]Lys-Ser-Pheψ[CH2NH]Leu-OH [Compound 22]”, in assay [1], the MRSA IC50 amounted to 10.9 µg/mL and the “activity against MRSA (in words)” value is “active against both”. Moreover, in assay [2], the Ps A. IC50 was 9.2 µg/mL and the “activity against Pseudomonas aeruginosa (in words)” value is “active against both”.
The compound “4-AMBψ[CH2NH]Lys-Ser-4-AMBψ[CH2NH]Leu-OH [Compound 38]” gave an MRSA IC50 in assay [1] of more than 500 µg/mL. This compound had a Ps A. IC50 in assay [2] of more than 500 µg/mL.
In assay [1], `CC(C)C[C@H](NC[C@H](Cc1ccccc1)NC(=O)[C@H](Cc1ccccc1)NC(=O)C(C)(C)NC[C@@H](N)Cc1ccc2ccccc2c1)C(=O)O` [Compound 12, H-2-Nalψ[CH2NH]Aib-Phe-Pheψ[CH2NH]Leu-OH] had an IC50 of 26 µg/mL (≈ 38.2 µM) and an MIC of 125 to 250 µg/mL.
Consider `CC(C)C[C@H](NC[C@H](Cc1ccccc1)NC(=O)[C@@H](NC(=O)[C@H](CCCCN)NC[C@@H](N)Cc1ccc2ccccc2c1)C(C)C)C(=O)O` [Compound 2, H-2-Nalψ[CH2NH]Lys-Val-Pheψ[CH2NH]Leu-OH], for which, in assay [1], the IC50 was found to be 69 µg/mL (≈ 102 µM) and the MIC was 125 to 250 µg/mL. In assay [2] (ATCC27853, 21 h), this compound showed an IC50 of 58 µg/mL (≈ 85.9 µM) and an MIC of 80 to 152 µg/mL.
For “H-2-Nalψ[CH2NAc]Lys-Ser-Pheψ[CH2NH]Leu-OH [Compound 23]”, in assay [1], the MRSA IC50 turned out to be 19.6 µg/mL and the “activity against MRSA (in words)” value is listed as “active against both”. In assay [2], the Ps A. IC50 came out at 33.5 µg/mL and the “activity against Pseudomonas aeruginosa (in words)” value was “active against both”.
